{"source": "patent US6395896B2", "about": "“Pyridazine derivatives, manufacturing method and related composition” (Shiseido Co., Ltd., priority 1999, dated 2002)", "experiment": "Colorant stabilization effect (photostabilizer, sunlight exposure)", "set-up": "key to Sunlight exposure (80 MJ) Appearance: A: No change; B: No almost change; C: Yes change; key to Sunlight exposure (80 MJ) ΔE: ΔE color difference (Lab) vs. color before sunlight exposure", "procedure": "First of all, the photostabilization effect and appearance change of a composition in each pigment were studied by the following evaluation formulation.\nEach test sample was prepared. Observation of appearance change (visual evaluation) and measurement of color difference (ΔE) were carried out in samples exposed to sunlight exposure (around 80 MJ).\nColor difference was measured by Lab coordinate system with spectrophotometer. Color difference was calculated on the basis of the color before sunlight exposure. Namely, from measured value (L1,a1,b1) before sunlight exposure, color difference (ΔE) was calculated by following formula.", "key": {"[1]": {"details": "Blue No. 1 0.00001 wt %, photostabilizer 0.05 wt %"}, "[2]": {"details": "Blue No. 1 0.00001 wt %, photostabilizer 0.1 wt %"}, "[3]": {"details": "Blue No. 1 0.00001 wt %, photostabilizer 0.3 wt %"}, "[4]": {"details": "Blue No. 1 0.0001 wt %, photostabilizer 0.03 wt %"}, "[5]": {"details": "Blue No. 1 0.0001 wt %, photostabilizer 0.05 wt %"}, "[6]": {"details": "Blue No. 1 0.0001 wt %, photostabilizer 0.1 wt %"}, "[7]": {"details": "Green No. 3 0.00001 wt %, photostabilizer 0.03 wt %"}, "[8]": {"details": "Green No. 3 0.00001 wt %, photostabilizer 0.1 wt %"}, "[9]": {"details": "Green No. 3 0.00001 wt %, photostabilizer 0.3 wt %"}, "[10]": {"details": "Green No. 3 0.0001 wt %, photostabilizer 0.02 wt %"}, "[11]": {"details": "Green No. 3 0.0001 wt %, photostabilizer 0.05 wt %"}, "[12]": {"details": "Green No. 3 0.0001 wt %, photostabilizer 0.1 wt %"}, "[13]": {"details": "Red No. 106 0.00001 wt % + Yellow No. 5 0.0001 wt %, photostabilizer 0.03 wt %"}, "[14]": {"details": "Red No. 106 0.00001 wt % + Yellow No. 5 0.0001 wt %, photostabilizer 0.05 wt %"}, "[15]": {"details": "Red No. 106 0.00001 wt % + Yellow No. 5 0.0001 wt %, photostabilizer 0.3 wt %"}, "[16]": {"details": "Red No. 106 0.00001 wt % + Yellow No. 203 0.0001 wt %, photostabilizer 0.05 wt %"}, "[17]": {"details": "Red No. 106 0.00001 wt % + Yellow No. 203 0.0001 wt %, photostabilizer 0.1 wt %"}, "[18]": {"details": "Red No. 106 0.00001 wt % + Yellow No. 203 0.0001 wt %, photostabilizer 0.3 wt %"}, "[19]": {"details": "Red No. 106 0.00001 wt %, photostabilizer 0.05 wt %"}, "[20]": {"details": "Red No. 106 0.00001 wt %, photostabilizer 0.1 wt %"}, "[21]": {"details": "Red No. 106 0.00001 wt %, photostabilizer 0.3 wt %"}, "[22]": {"details": "Red No. 106 0.0001 wt %, photostabilizer 0.03 wt %"}, "[23]": {"details": "Red No. 106 0.0001 wt %, photostabilizer 0.05 wt %"}, "[24]": {"details": "Red No. 106 0.0001 wt %, photostabilizer 0.1 wt %"}, "[25]": {"details": "Red No. 213 0.00001 wt % + Blue No. 1 0.00001 wt %, photostabilizer 0.03 wt %"}, "[26]": {"details": "Red No. 213 0.00001 wt % + Blue No. 1 0.00001 wt %, photostabilizer 0.05 wt %"}, "[27]": {"details": "Red No. 213 0.00001 wt % + Blue No. 1 0.00001 wt %, photostabilizer 0.1 wt %"}, "[28]": {"details": "Red No. 213 0.00001 wt %, photostabilizer 0.03 wt %"}, "[29]": {"details": "Red No. 213 0.00001 wt %, photostabilizer 0.1 wt %"}, "[30]": {"details": "Red No. 213 0.00001 wt %, photostabilizer 0.3 wt %"}, "[31]": {"details": "Red No. 213 0.0001 wt %, photostabilizer 0.03 wt %"}, "[32]": {"details": "Red No. 213 0.0001 wt %, photostabilizer 0.05 wt %"}, "[33]": {"details": "Red No. 213 0.0001 wt %, photostabilizer 0.1 wt %"}, "[34]": {"details": "Red No. 227 0.00001 wt %, photostabilizer 0.05 wt %"}, "[35]": {"details": "Red No. 227 0.00001 wt %, photostabilizer 0.1 wt %"}, "[36]": {"details": "Red No. 227 0.00001 wt %, photostabilizer 0.3 wt %"}}}
{"smiles": "Oc1nncc(N2CCOCC2)c1N1CCOCC1", "note": "[4,5-Dimorpholino-3-hydroxypyridazine]", "values": [{"measurement": "Sunlight exposure (80 MJ) Appearance", "setting": "[1]", "result": "A"}, {"measurement": "Sunlight exposure (80 MJ) ΔE", "setting": "[1]", "result": 1.00}, {"measurement": "Sunlight exposure (80 MJ) Appearance", "setting": "[2]", "result": "A"}, {"measurement": "Sunlight exposure (80 MJ) ΔE", "setting": "[2]", "result": 0.62}, {"measurement": "Sunlight exposure (80 MJ) Appearance", "setting": "[3]", "result": "A"}, {"measurement": "Sunlight exposure (80 MJ) ΔE", "setting": "[3]", "result": 0.25}, {"measurement": "Sunlight exposure (80 MJ) Appearance", "setting": "[4]", "result": "A"}, {"measurement": "Sunlight exposure (80 MJ) ΔE", "setting": "[4]", "result": 1.25}, {"measurement": "Sunlight exposure (80 MJ) Appearance", "setting": "[5]", "result": "A"}, {"measurement": "Sunlight exposure (80 MJ) ΔE", "setting": "[5]", "result": 1.11}, {"measurement": "Sunlight exposure (80 MJ) Appearance", "setting": "[6]", "result": "A"}, {"measurement": "Sunlight exposure (80 MJ) ΔE", "setting": "[6]", "result": 0.70}, {"measurement": "Sunlight exposure (80 MJ) Appearance", "setting": "[7]", "result": "A"}, {"measurement": "Sunlight exposure (80 MJ) ΔE", "setting": "[7]", "result": 0.56}, {"measurement": "Sunlight exposure (80 MJ) Appearance", "setting": "[8]", "result": "A"}, {"measurement": "Sunlight exposure (80 MJ) ΔE", "setting": "[8]", "result": 0.08}, {"measurement": "Sunlight exposure (80 MJ) Appearance", "setting": "[9]", "result": "A"}, {"measurement": "Sunlight exposure (80 MJ) ΔE", "setting": "[9]", "result": 0.02}, {"measurement": "Sunlight exposure (80 MJ) Appearance", "setting": "[10]", "result": "A"}, {"measurement": "Sunlight exposure (80 MJ) ΔE", "setting": "[10]", "result": 0.75}, {"measurement": "Sunlight exposure (80 MJ) Appearance", "setting": "[11]", "result": "A"}, {"measurement": "Sunlight exposure (80 MJ) ΔE", "setting": "[11]", "result": 0.31}, {"measurement": "Sunlight exposure (80 MJ) Appearance", "setting": "[12]", "result": "A"}, {"measurement": "Sunlight exposure (80 MJ) ΔE", "setting": "[12]", "result": 0.06}, {"measurement": "Sunlight exposure (80 MJ) Appearance", "setting": "[13]", "result": "A"}, {"measurement": "Sunlight exposure (80 MJ) ΔE", "setting": "[13]", "result": 0.97}, {"measurement": "Sunlight exposure (80 MJ) Appearance", "setting": "[14]", "result": "A"}, {"measurement": "Sunlight exposure (80 MJ) ΔE", "setting": "[14]", "result": 0.55}, {"measurement": "Sunlight exposure (80 MJ) Appearance", "setting": "[15]", "result": "A"}, {"measurement": "Sunlight exposure (80 MJ) ΔE", "setting": "[15]", "result": 0.12}, {"measurement": "Sunlight exposure (80 MJ) Appearance", "setting": "[16]", "result": "A"}, {"measurement": "Sunlight exposure (80 MJ) ΔE", "setting": "[16]", "result": 0.77}, {"measurement": "Sunlight exposure (80 MJ) Appearance", "setting": "[17]", "result": "A"}, {"measurement": "Sunlight exposure (80 MJ) ΔE", "setting": "[17]", "result": 0.25}, {"measurement": "Sunlight exposure (80 MJ) Appearance", "setting": "[18]", "result": "A"}, {"measurement": "Sunlight exposure (80 MJ) ΔE", "setting": "[18]", "result": 0.11}, {"measurement": "Sunlight exposure (80 MJ) Appearance", "setting": "[19]", "result": "A"}, {"measurement": "Sunlight exposure (80 MJ) ΔE", "setting": "[19]", "result": 1.01}, {"measurement": "Sunlight exposure (80 MJ) Appearance", "setting": "[20]", "result": "A"}, {"measurement": "Sunlight exposure (80 MJ) ΔE", "setting": "[20]", "result": 0.55}, {"measurement": "Sunlight exposure (80 MJ) Appearance", "setting": "[21]", "result": "A"}, {"measurement": "Sunlight exposure (80 MJ) ΔE", "setting": "[21]", "result": 0.12}, {"measurement": "Sunlight exposure (80 MJ) Appearance", "setting": "[22]", "result": "A"}, {"measurement": "Sunlight exposure (80 MJ) ΔE", "setting": "[22]", "result": 0.95}, {"measurement": "Sunlight exposure (80 MJ) Appearance", "setting": "[23]", "result": "A"}, {"measurement": "Sunlight exposure (80 MJ) ΔE", "setting": "[23]", "result": 0.82}, {"measurement": "Sunlight exposure (80 MJ) Appearance", "setting": "[24]", "result": "A"}, {"measurement": "Sunlight exposure (80 MJ) ΔE", "setting": "[24]", "result": 0.43}, {"measurement": "Sunlight exposure (80 MJ) Appearance", "setting": "[25]", "result": "A"}, {"measurement": "Sunlight exposure (80 MJ) ΔE", "setting": "[25]", "result": 1.21}, {"measurement": "Sunlight exposure (80 MJ) Appearance", "setting": "[26]", "result": "A"}, {"measurement": "Sunlight exposure (80 MJ) ΔE", "setting": "[26]", "result": 0.97}, {"measurement": "Sunlight exposure (80 MJ) Appearance", "setting": "[27]", "result": "A"}, {"measurement": "Sunlight exposure (80 MJ) ΔE", "setting": "[27]", "result": 0.73}, {"measurement": "Sunlight exposure (80 MJ) Appearance", "setting": "[28]", "result": "B"}, {"measurement": "Sunlight exposure (80 MJ) ΔE", "setting": "[28]", "result": 1.24}, {"measurement": "Sunlight exposure (80 MJ) Appearance", "setting": "[29]", "result": "A"}, {"measurement": "Sunlight exposure (80 MJ) ΔE", "setting": "[29]", "result": 0.45}, {"measurement": "Sunlight exposure (80 MJ) Appearance", "setting": "[30]", "result": "A"}, {"measurement": "Sunlight exposure (80 MJ) ΔE", "setting": "[30]", "result": 0.12}, {"measurement": "Sunlight exposure (80 MJ) Appearance", "setting": "[31]", "result": "B"}, {"measurement": "Sunlight exposure (80 MJ) ΔE", "setting": "[31]", "result": 1.11}, {"measurement": "Sunlight exposure (80 MJ) Appearance", "setting": "[32]", "result": "A"}, {"measurement": "Sunlight exposure (80 MJ) ΔE", "setting": "[32]", "result": 0.78}, {"measurement": "Sunlight exposure (80 MJ) Appearance", "setting": "[33]", "result": "A"}, {"measurement": "Sunlight exposure (80 MJ) ΔE", "setting": "[33]", "result": 0.32}, {"measurement": "Sunlight exposure (80 MJ) Appearance", "setting": "[34]", "result": "A"}, {"measurement": "Sunlight exposure (80 MJ) ΔE", "setting": "[34]", "result": 0.69}, {"measurement": "Sunlight exposure (80 MJ) Appearance", "setting": "[35]", "result": "A"}, {"measurement": "Sunlight exposure (80 MJ) ΔE", "setting": "[35]", "result": 0.32}, {"measurement": "Sunlight exposure (80 MJ) Appearance", "setting": "[36]", "result": "A"}, {"measurement": "Sunlight exposure (80 MJ) ΔE", "setting": "[36]", "result": 0.11}, {"measurement": "Sunlight exposure (80 MJ) Appearance", "setting": "Red No. 227 0.0001 wt % + Yellow No. 5 0.0001 wt %, photostabilizer 0.03 wt %", "result": "A"}]}
